What was measured:
[1] = system: biomarkers for myocardial infarction risk; conditions: clinical trial; cited from earlier work
[2] = system: synthesis of LTB4 in human whole blood; assay: Human whole blood LTB4 production inhibition assay; type: cell-based; conditions: heparinized human whole blood, calcimycin 20 μM, plasma LTB4; read-out: HuWB IC50
Outline: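 Heparinized human whole blood preincubated with compound 15 min at 37 °C, then stimulated with calcimycin (20 μM final) for 30 min at 37 °C. Plasma LTB4 measured after low-speed centrifugation by antibody-based homogeneous time-resolved fluorescence.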

[3] = biological target: T1, recombinant human FLAP protein (Homo sapiens, UniProt P20292); assay: FLAP binding assay (SPA, displacement of [125I]L-691,831); conditions: membranes of sf9 cells expressing human FLAP, [125I]L-691,831 probe; read-out: hFLAP binding IC50
T1 construct: made in house; host or cells: Sf9 insect cells (membrane fraction, 100,000 x g pellet)
T1 sequence (P20292 1-161): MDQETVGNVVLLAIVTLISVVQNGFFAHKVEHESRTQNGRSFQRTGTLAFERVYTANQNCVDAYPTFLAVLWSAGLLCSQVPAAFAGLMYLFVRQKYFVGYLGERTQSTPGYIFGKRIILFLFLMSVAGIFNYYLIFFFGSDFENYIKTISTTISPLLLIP
Outline: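 Membranes from sf9 cells expressing human FLAP (5 μg/well) were bound to WGA SPA beads (200 μg/well). Nonspecific binding was defined with 10 μM unlabelled L-691,831.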

human glomerulonephritis = conditions: clinical trial; cited from earlier work
[4] = system: apoE/LDL-R double knockout mice; conditions: oral dosing, high-fat diet from 2 months of age to 6 months; cited from earlier work
ApoExCD4dnT RII mice = conditions: infusion, treated for four weeks; cited from earlier work

Structure (SMILES)	IC50 [2] [nM]	IC50 [3] [nM]	further results
O=C(O)[C@@H](c1ccc(OCc2ccc3ccccc3n2)cc1)C1CCCC1 [DG-031]			effect on biomarkers for myocardial infarction risk [1]: dose-dependent suppression of several biomarkers
Cc1nccn1-c1ccc(NC(=O)C2(c3ccc(-c4cnc(N)nc4)cc3)CCC2)cc1 [Example 229, 1-[4-(2-aminopyrimidin-5-yl)phenyl]-N-[4-(2-methyl-1H-imidazol-1-yl)phenyl]cyclobutanecarboxamide]	153	6.65	
Nc1ncc(-c2ccc(C3(C(=O)Nc4ccncc4)CCCC3)cc2)cn1 [Example 230, 1-[4-(2-aminopyrimidin-5-yl)phenyl]-N-(pyridin-4-yl)cyclopentanecarboxamide]	696	21.5	
CCC(C)(C(=O)Nc1ccncc1)c1ccc(-c2cnc(N)nc2)cc1 (centres unmarked) [Example 231, 2-[4-(2-aminopyrimidin-5-yl)phenyl]-2-methyl-N-(pyridin-4-yl)butanamide]	1210	84	
N#Cc1ccc(NC(=O)C2(c3ccc(-c4cnc(N)nc4)cc3)CCC2)nc1 [Example 232, 1-[4-(2-aminopyrimidin-5-yl)phenyl]-N-(5-cyanopyridin-2-yl)cyclobutanecarboxamide]	152	7.45	
CS(=O)(=O)c1ccc(NC(=O)C2(c3ccc(-c4cnc(N)nc4)cc3)CCC2)cc1 [Example 233, 1-[4-(2-aminopyrimidin-5-yl)phenyl]-N-[4-(methylsulfonyl)phenyl]cyclobutane-carboxamide]	160	6.5	
CN1CCc2nc(NC(=O)C3(c4ccc(-c5cnc(N)nc5)cc4)CCC3)sc2C1 [Example 234, 1-[4-(2-aminopyrimidin-5-yl)phenyl]-N-(5-methyl-4,5,6,7-tetrahydro[1,3]thiazolo[5,4-c]pyridin-2-yl)cyclobutanecarboxamide]	858	32.5	
Cc1nc(-c2ccc(NC(=O)C(C)(C)c3ccc(-c4cnc(N)nc4)cc3)nc2)cs1 [Example 235, 2-[4-(2-aminopyrimidin-5-yl)phenyl]-2-methyl-N-[5-(2-methyl-1,3-thiazol-4-yl)pyridin-2-yl]propanamide]	627	5.4	
N#Cc1cc(NC(=O)C2(c3ccc(-c4cnc(N)nc4)cc3)CCC2)ccn1 [Example 236, 1-[4-(2-aminopyrimidin-5-yl)phenyl]-N-(2-cyanopyridin-4-yl)cyclobutanecarboxamide]	290	3.45	
CCOC(=O)c1ccc(NC(=O)C2(c3ccc(-c4cnc(N)nc4)cc3)CCC2)nc1 [Example 237, ethyl 6-[({1-[4-(2-aminopyrimidin-5-yl)phenyl]cyclobutyl}carbonyl)amino]pyridine-3-carboxylate]	43	1.9	
CC(C)(C)Sc1c(CC(C)(C)C(=O)O)n(Cc2ccc(Cl)cc2)c2ccc(OCc3ccc4ccccc4n3)cc12 [MK-591]			effect on proteinuria (human glomerulonephritis): reduce proteinuria
CC(C)c1ccc2c(c1)c(SC(C)(C)C)c(CC(C)(C)C(=O)O)n2Cc1ccc(Cl)cc1 [MK-886]			decrease in plaque coverage in the aorta [4]: 56%; decrease in plaque coverage in the aortic root [4]: 43%; decrease in plaque area in the aortic root (ApoExCD4dnT RII mice): ~40%

More lines, main results first:

IC50 [2] [nM]	IC50 [3] [nM]	Structure (SMILES)	further results
74.5	2.35	Nc1ncc(-c2ccc(C3(C(=O)Nc4ccc(-c5ccncc5)cn4)CCC3)cc2)cn1 [Example 238]	
144	2.15	Nc1ncc(-c2ccc(C3(C(=O)Nc4ccc(-c5cccnc5)cn4)CCC3)cc2)cn1 [Example 239, 1-[4-(2-aminopyrimidin-5-yl)phenyl]-N-(3,3'-bipyridin-6-yl)cyclobutanecarboxamide]	
406	5.6	N#Cc1ccc(NC(=O)C2(c3ccc(-c4cnc(N)nc4)cc3)CCC2)cn1 [Example 241, 1-[4-(2-aminopyrimidin-5-yl)phenyl]-N-(6-cyanopyridin-3-yl)cyclobutanecarboxamide]	
46	3.3	Nc1ncc(-c2ccc(C3(C(=O)Nc4ccc(N5CCOCC5)c(Cl)c4)CCC3)cc2)cn1 [Example 245, 1-[4-(2-aminopyrimidin-5-yl)phenyl]-N-[3-chloro-4-(morpholin-4-yl)phenyl]cyclobutanecarboxamide]	
60.8	3.2	N#Cc1ccc(NC(=O)C2(c3ccc(-c4cnc(N)nc4)cc3)CCC2)cc1 [Example 250, 1-[4-(2-aminopyrimidin-5-yl)phenyl]-N-(4-cyanophenyl)cyclobutanecarboxamide]	
228	7.4	CN1CCN(c2cc(NC(=O)C3(c4ccc(-c5cnc(N)nc5)cc4)CCC3)ccn2)CC1 [Example 252, 1-[4-(2-aminopyrimidin-5-yl)phenyl]-N-[2-(4-methylpiperazin-1-yl)pyridin-4-yl]cyclobutanecarboxamide]	
270	1.8	Nc1ncc(-c2ccc(C3(C(=O)Nc4nc(-c5cccnc5)cs4)CCC3)cc2)cn1 [Example 253, 1-[4-(2-aminopyrimidin-5-yl)phenyl]-N-[4-(pyridin-3-yl)-1,3-thiazol-2-yl]cyclobutanecarboxamide]	
111	1.6	Nc1ncc(-c2ccc(C3(C(=O)Nc4nc(-c5ccncc5)cs4)CCC3)cc2)cn1 [Example 254, 1-[4-(2-aminopyrimidin-5-yl)phenyl]-N-[4-(pyridin-4-yl)-1,3-thiazol-2-yl]cyclobutanecarboxamide]	
144	2.5	Cn1cc(-c2ccc(NC(=O)C3(c4ccc(-c5cnc(N)nc5)cc4)CCC3)nc2)cn1 [Example 255, 1-[4-(2-aminopyrimidin-5-yl)phenyl]-N-[5-(1-methyl-1H-pyrazol-4-yl)pyridin-2-yl]cyclobutanecarboxamide]	

From patent US9073895B2 (Boehringer Ingelheim International GmbH, priority 2010, dated 2015)
